Test results: BindingDB's records for doi:10.1021/jm020424z (Merck Research Laboratories, 2002)

Target: Carboxypeptidase A1 (Bos taurus) (UniProt P00730)
Test: The compound was evaluated for the inhibition of Carboxypeptidase A

Chain of Carboxypeptidase A1 (Bos taurus) (P00730 whole entry, looked up): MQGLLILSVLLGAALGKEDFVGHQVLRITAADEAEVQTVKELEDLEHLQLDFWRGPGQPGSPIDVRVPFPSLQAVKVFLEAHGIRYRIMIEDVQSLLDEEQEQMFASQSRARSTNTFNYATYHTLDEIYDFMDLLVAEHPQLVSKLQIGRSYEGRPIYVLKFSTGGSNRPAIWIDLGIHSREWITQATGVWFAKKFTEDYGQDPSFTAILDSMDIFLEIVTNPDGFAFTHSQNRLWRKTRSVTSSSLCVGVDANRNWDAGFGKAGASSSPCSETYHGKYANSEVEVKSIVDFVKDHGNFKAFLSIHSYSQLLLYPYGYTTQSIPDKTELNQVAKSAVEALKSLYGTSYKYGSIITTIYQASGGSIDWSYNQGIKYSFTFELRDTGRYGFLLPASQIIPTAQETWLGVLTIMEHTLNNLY

Row | Ki | Compound
1 | 450 nM | O=C(O)C[C@@H](Cc1ccccc1)C(=O)O [2-benzylbutanedioic acid]
2 | 5000 nM | O=C(O)CCC(Cc1ccccc1)C(=O)O (configuration not stated) [2-Benzyl-pentanedioic acid]
